According to US20040122048A1, “Stabilized pharmaceutical composition containing basic excipients” (Wyeth Holdings Corporation, priority 2002, published 2004):

Key:
[1] = pH of excipient solutions and of crushed EKB-569 tablet slurries; assay type: physicochemical; conditions: for pH at 0.1% excipient, Excipient Solution: 0.1% solution/suspension of basic excipient; for pH at 0.5% excipient, Excipient Solution: 0.5% solution/suspension of basic excipient; for pH at 1% excipient, Excipient Solution: 1% solution/suspension of basic excipient; for pH at 5% excipient, Excipient Solution: 5% solution/suspension of basic excipient
Excerpt: The data in Table 3 supported testing improved stability of a pharmaceutical composition by lowering the pH of the pharmaceutical composition. […]

[2] = Protocol: Compositions of tablets containing 0.5% and 0.1% of these excipients remain the same. Quantity of microcrystalline cellulose was adjusted to allow for the changes in the amounts of basic excipients. Tablets were manufactured using granulation.
Tablets were stored at 40° C./75% RH for 1 month.

[3] = Stability of EKB-569 solution (degradation rate constant in buffers); assay type: physicochemical; conditions: for EKB-569 degradation rate constant: 0.2 mg/mL in 0.02 M buffer with 50% Acetonitrile
[4] = Solid state stability for EKB-569 drug substance at 56° C./75% RH; assay type: physicochemical; conditions: for % EKB-569 remaining / Total impurities: drug substance, 56° C./75% RH
Protocol: A study was conducted at 56° C./75% RH for 2 weeks. The samples were filled into 2-ml flame sealed Kimble score-break ampules.

Compound	pH at 0.1% excipient, Excipient Solution [1]	pH at 0.5% excipient, Excipient Solution [1]	pH at 1% excipient, Excipient Solution [1]	pH at 5% excipient, Excipient Solution [1]	other results
O=C([O-])O.[Na+] [Sodium bicarbonate]	8.69	8.56	8.34	8.18	
O=C([O-])[O-].[Ca+2] [Calcium carbonate]	8.95	8.93	9.02	9.12	
O=C([O-])CN(CCN(CC(=O)[O-])CC(=O)[O-])CC(=O)[O-].[Na+].[Na+].[Na+].[Na+] [EDTA, tetra sodium]	10.55	10.84	10.94	10.75	
OC[C@H]1O[C@@H](O[C@H]2[C@H](O)[C@@H](O)C(O)O[C@@H]2CO)[C@H](O)[C@@H](O)[C@H]1O (stereo partly shown) [lactose]					effect on stability of EKB-569 pharmaceutical composition [2]: no effect on stability
NC(CO)(CO)CO [Tromethamine]	9.98	9.99	10.51	10.87	
CCOc1cc2ncc(C#N)c(Nc3ccc(F)c(Cl)c3)c2cc1NC(=O)C=CCN(C)C [EKB-569, 4-dimethylamino-but-2-enoic acid [4-(3-chloro-4-fluoro-phenylamino)-3-cyano-7-ethoxy-quinolin-6-yl]-amide]					EKB-569 degradation rate constant ([3]; pH 1.2 (HCl), 80° C.): 0.0013 h⁻¹; EKB-569 degradation rate constant ([3]; pH 3.0 (Phoshphate), 80° C.): 0.0003 h⁻¹; EKB-569 degradation rate constant ([3]; pH 5.0 (Acetate), 56° C.): 0.0008 h⁻¹; EKB-569 degradation rate constant ([3]; pH 5.0 (Acetate), 80° C.): 0.0113 h⁻¹; EKB-569 degradation rate constant ([3]; pH 7.4 (Phosphate), 56° C.): 0.003 h⁻¹; EKB-569 degradation rate constant ([3]; pH 7.4 (Phosphate), 80° C.): 0.0235 h⁻¹; EKB-569 degradation rate constant ([3]; pH 9 (Glycine), 56° C.): 0.0031 h⁻¹; EKB-569 degradation rate constant ([3]; pH 9 (Glycine), 80° C.): 0.0229 h⁻¹; stability in solution as a function of pH ([3]; pH range 1.2-9, 56° C. and 80° C.): more stable in acidic solution; stability in the solid state ([4]; 56° C./75% RH for 2 weeks): chemical instability in the solid state; % EKB-569 remaining ([4]; 3 Days): 98.1%; Total impurities ([4]; 3 Days): 1.1%; % EKB-569 remaining ([4]; 7 Days): 97.7%; Total impurities ([4]; 7 Days): 1.68%; % EKB-569 remaining ([4]; 14 Days): 97.1%; Total impurities ([4]; 14 Days): 2.62%; % EKB-569 remaining ([4]; Initial): 99.1%; Total impurities ([4]; Initial): 0.78%
O=C([O-])[O-].[Na+].[Na+] [Sodium carbonate]	10.99	11.21	11.31	11.5	
N=C(N)NCCC[C@H](N)C(=O)O [Arginine]	10.18	10.57	10.91	11.23	
